According to patent publication US20030072710A1, “Individualization of therapy with antidepressants” (McGill University, priority 2001, published 2003):
Where two headings read alike, the source gives them in different places. Marks after values point to notes of the source that are not given here.

Tests used:
[1] = system: AAMU-Ab; test: Competitive antigen ELISA, cross-reactivity of AAMU-Ab; assay type: binding, rabbit; settings: for % Cross-Reaction AAMU-Ab: competitive antigen ELISA, 0 = absence of inhibition or inhibition no higher than 40% at highest concentration tested (5×10^−3 M)
Protocol: (§1) Buffers and water without additives are filtered through millipore filters and kept for 1 week. BSA, antibodies, Tween™ 20 and horse radish peroxidase conjugates are added to these buffers and water just prior to use. Urine samples are usually collected 4 hours after drinking a cup of coffee (instant or brewed with approximately 100 mg of caffeine per cup) and stored at −80° C. The urine samples are diluted 10 times with sodium phosphate buffer (620 mosm, pH 7.50) and are subsequently diluted with water to give concentrations of AAMU and 1X no higher than 3×10^−6 M in the ELISA. All the pipettings are done with an eight-channel pipette, except those of the antibody and sample solutions. Starting with the last well, 100 μL of a carbonate buffer (100 mM, pH 9.6) containing 2.5 μg mL-1 antibodies are added to each well. After 90 min. at room temperature, the wells are washed three times with […] of TPB: isotonic sodium phosphate buffer (310 mosm, pH 7.50) containing 0.05% Tween™ 20.
(§2) After the initial wash, unoccupied sites are blocked by incubation for 90 min. at room temperature with 100 μL TBP containing 3% BSA. The wells are washed four times with 100 μL TPB. […] The microplate is gently shaken with an orbital shaker at room temperature for 3-4 hours. The wells are washed three times with 100 μL TPB containing 1% BSA and three times with water containing 0.05% Tween™ 20. To the washed plate is added 150 μL of a substrate buffer composed of citric acid (25 mM) and sodium phosphate dibasic buffer (50 mM, pH 5.0) containing 0.06% hydrogen peroxide and 0.04% o-phenylenediamine hydrochloride.
(§3) Buffers and water without additives were filtered through millipore filters and kept for 1 week. BSA, antibodies, Tween™ 20 and horse radish peroxidase conjugates were added to these buffers and water just prior to use. Urine samples were usually collected 4 hours after drinking a cup of coffee (instant or brewed with approximately 100 mg of caffeine per cup) and stored at −80° C. They were diluted 10 times with sodium phosphate buffer (620 mosm, pH 7.50) and were subsequently diluted with water to give concentrations of AAMU and 1X no higher than 3×10^−6 M in the ELISA. All the pipettings were done with an eight-channel pipette, except those of the antibody and sample solutions. Starting with the last well, 100 μL of a carbonate buffer (100 mM, pH 9.6) containing 2.5 μg mL-1 antibodies was pipetted. After 90 min. at room temperature, the wells were washed three times with 100 μL of TPB: isotonic sodium phosphate buffer (310 mosm, pH 7.50) containing 0.05% Tween™ 20.
(§4) After the initial wash, unoccupied sites were blocked by incubation for 90 min. at room temperature with 100 μL TBP containing 3% BSA. The wells were washed four times with 100 μL TPB. […] The microplate was gently shaken with an orbital shaker at room temperature for 3-4 hours. The wells were washed three times with 100 μL with TPB containing 1% BSA and three times with water containing 0.05% Tween™ 20. To the washed plate was added 150 μL of a substrate buffer composed of citric acid (25 mM) and sodium phosphate dibasic buffer (50 mM, pH 5.0) containing 0.06% hydrogen peroxide and 0.04% o-phenylenediamine hydrochloride. After 20 min. at room temperature with shaking, the reaction was stopped with 50 μL of 2.5 N HCl.
(§5) The cross reactivities of AAMU-Ab and 1X-Ab were tested using a wide variety of caffeine metabolites and structural analogs (Table 5 below).

[2] = system: 1X-Ab; test: Competitive antigen ELISA, cross-reactivity of 1X-Ab; assay type: binding, rabbit; settings: for % Cross-Reaction 1X-Ab: competitive antigen ELISA, 0 = absence of inhibition or inhibition no higher than 40% at highest concentration tested (5×10^−3 M)
Protocol: as §1, §2, §3, §4, §5

[3] = cited from earlier work

SMILES: Cn1c(=O)c2c(ncn2C)n(C)c1=O [1,3,7-Trimethyl Xanthine (Caffeine), 1,3,7-Trimethyl Xanthine]
- % Cross-Reaction AAMU-Ab [1]: 0%
- % Cross-Reaction 1X-Ab [2]: 0%

SMILES: Cn1c(=O)c2[nH]cnc2n(C)c1=O [1,3-Dimethyl Xanthine (Theophylline), 1,3-Dimethyl Xanthine]
- % Cross-Reaction AAMU-Ab [1]: 0%
- % Cross-Reaction 1X-Ab [2]: 0.2%

SMILES: Cn1c(=O)[nH]c2ncn(C)c2c1=O [1,7-Dimethyl Xanthine (Paraxanthine), 1,7-Dimethyl Xanthine]
- % Cross-Reaction AAMU-Ab [1]: 0%
- % Cross-Reaction 1X-Ab [2]: 0.5%

SMILES: Cn1c(=O)[nH]c2[nH]c(=O)n(C)c2c1=O [1,7-Dimethyluric acid]
- % Cross-Reaction AAMU-Ab [1]: 0%
- % Cross-Reaction 1X-Ab [2]: 0%

SMILES: Cn1c(=O)[nH]c2nc[nH]c2c1=O [1-Methyl Xanthine (1X), 1-Methyl Xanthine]
- % Cross-Reaction AAMU-Ab [1]: 0%
- % Cross-Reaction 1X-Ab [2]: 100%
- IC50 ([2]; read-out: concentration required for 50% inhibition in the competitive antigen ELISA, 1X-Ab): 10 µM

SMILES: Cn1c(=O)[nH]c2[nH]c(=O)[nH]c2c1=O [1-Methyluric acid]
- % Cross-Reaction AAMU-Ab [1]: 0%
- % Cross-Reaction 1X-Ab [2]: 11%

SMILES: Cn1cnc2c1c(=O)[nH]c(=O)n2C [3,7-Dimethyl Xanthine (Theobromine), 3,7-Dimethyl Xanthine]
- % Cross-Reaction AAMU-Ab [1]: 0%
- % Cross-Reaction 1X-Ab [2]: 0%

SMILES: Cn1c(=O)[nH]c(=O)c2[nH]cnc21 [3-Methyl Xanthine]
- % Cross-Reaction AAMU-Ab [1]: 0%
- % Cross-Reaction 1X-Ab [2]: 0%

SMILES: CC(=O)Nc1c(N)n(C)c(=O)n(C)c1=O [5-Acetamino-6-amino-1,3-dimethyluracil]
- % Cross-Reaction AAMU-Ab [1]: 0%
- % Cross-Reaction 1X-Ab [2]: 0%

SMILES: CC(=O)Nc1c(N)n(C)c(=O)[nH]c1=O [5-Acetamino-6-amino-1-methyluracil]
- % Cross-Reaction AAMU-Ab [1]: 100%
- IC50 ([1]; read-out: concentration required for 50% inhibition in the competitive antigen ELISA, AAMU-Ab): 1.5 µM
- % Cross-Reaction 1X-Ab [2]: 0%

SMILES: CC(=O)Nc1c(N)[nH]c(=O)[nH]c1=O [5-Acetamino-6-amino-uracil]
- % Cross-Reaction AAMU-Ab [1]: 0.6%
- % Cross-Reaction 1X-Ab [2]: 0%

SMILES: Cn1cnc2[nH]c(=O)[nH]c(=O)c21 [7-Methyl Xanthine]
- % Cross-Reaction AAMU-Ab [1]: 0%
- % Cross-Reaction 1X-Ab [2]: 0%

SMILES: Cc1nc2[nH]c(=O)[nH]c(=O)c2[nH]1 [8-Methyl Xanthine]
- % Cross-Reaction AAMU-Ab [1]: 0%
- % Cross-Reaction 1X-Ab [2]: 0%

SMILES: Nc1nc2nc[nH]c2c(=O)[nH]1 [Guanine]
- % Cross-Reaction AAMU-Ab [1]: 0%
- % Cross-Reaction 1X-Ab [2]: 0%

SMILES: O=c1[nH]cnc2nc[nH]c12 [Hypoxanthine]
- % Cross-Reaction AAMU-Ab [1]: 0%
- % Cross-Reaction 1X-Ab [2]: 0%

SMILES: O=c1cc[nH]c(=O)[nH]1 [Uracil]
- % Cross-Reaction AAMU-Ab [1]: 0%
- % Cross-Reaction 1X-Ab [2]: 0%

SMILES: O=c1[nH]c(=O)c2[nH]c(=O)[nH]c2[nH]1 [Uric acid]
- % Cross-Reaction AAMU-Ab [1]: 0%
- % Cross-Reaction 1X-Ab [2]: 0%

SMILES: O=c1[nH]c(=O)c2[nH]cnc2[nH]1 [Xanthine]
- % Cross-Reaction AAMU-Ab [1]: 0^a %
- % Cross-Reaction 1X-Ab [2]: 0%

SMILES: Nc1ccc(S(=O)(=O)c2ccc(N)cc2)cc1 [dapsone]
- adverse reactions to dapsone ([3]; fast acetylators): 17%
- adverse reactions to dapsone ([3]; slow acetylators): 46%
